This is an account of results in patent US10081624B2, “Heterocyclic compound” (Takeda Pharmaceutical Company Limited, priority 2014, dated 2018).

Structures are written as SMILES.

One assay addresses T1, HDAC1 enzyme (Homo sapiens, UniProt Q13547).
T1 construct: prepared by transducing full length HDAC1 and HDAC6 genes into Sf-9 insect cells; GST; purchased SignalChem; host or cells: Sf-9 insect cells
The assay can be described thus: HDAC1 enzyme inhibitory assay (HDAC-Glo I/II Assay kit). The class given is biochemical. Conditions: 1 μM test compound; read-out: HDAC1 inhibitory rate (%) (1 μM). In a few lines: (§1)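 Full-length GST-purified HDAC1 or HDAC6 (Sf-9 expressed) preincubated 60 min at room temperature with compound in Tris-HCl pH 7.5 buffer with glutathione and Tween-20. HDAC-Glo substrate-developer added, 20 min at room temperature, then luminescence read; inhibition relative to no-enzyme wells as 100%.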

A further assay concerns the target T2, HDAC6 enzyme (Homo sapiens, UniProt Q9UBN7).
T2 construct: prepared by transducing full length HDAC1 and HDAC6 genes into Sf-9 insect cells; GST; purchased SignalChem; host or cells: Sf-9 insect cells
T2 sequence (Q9UBN7 1-1215): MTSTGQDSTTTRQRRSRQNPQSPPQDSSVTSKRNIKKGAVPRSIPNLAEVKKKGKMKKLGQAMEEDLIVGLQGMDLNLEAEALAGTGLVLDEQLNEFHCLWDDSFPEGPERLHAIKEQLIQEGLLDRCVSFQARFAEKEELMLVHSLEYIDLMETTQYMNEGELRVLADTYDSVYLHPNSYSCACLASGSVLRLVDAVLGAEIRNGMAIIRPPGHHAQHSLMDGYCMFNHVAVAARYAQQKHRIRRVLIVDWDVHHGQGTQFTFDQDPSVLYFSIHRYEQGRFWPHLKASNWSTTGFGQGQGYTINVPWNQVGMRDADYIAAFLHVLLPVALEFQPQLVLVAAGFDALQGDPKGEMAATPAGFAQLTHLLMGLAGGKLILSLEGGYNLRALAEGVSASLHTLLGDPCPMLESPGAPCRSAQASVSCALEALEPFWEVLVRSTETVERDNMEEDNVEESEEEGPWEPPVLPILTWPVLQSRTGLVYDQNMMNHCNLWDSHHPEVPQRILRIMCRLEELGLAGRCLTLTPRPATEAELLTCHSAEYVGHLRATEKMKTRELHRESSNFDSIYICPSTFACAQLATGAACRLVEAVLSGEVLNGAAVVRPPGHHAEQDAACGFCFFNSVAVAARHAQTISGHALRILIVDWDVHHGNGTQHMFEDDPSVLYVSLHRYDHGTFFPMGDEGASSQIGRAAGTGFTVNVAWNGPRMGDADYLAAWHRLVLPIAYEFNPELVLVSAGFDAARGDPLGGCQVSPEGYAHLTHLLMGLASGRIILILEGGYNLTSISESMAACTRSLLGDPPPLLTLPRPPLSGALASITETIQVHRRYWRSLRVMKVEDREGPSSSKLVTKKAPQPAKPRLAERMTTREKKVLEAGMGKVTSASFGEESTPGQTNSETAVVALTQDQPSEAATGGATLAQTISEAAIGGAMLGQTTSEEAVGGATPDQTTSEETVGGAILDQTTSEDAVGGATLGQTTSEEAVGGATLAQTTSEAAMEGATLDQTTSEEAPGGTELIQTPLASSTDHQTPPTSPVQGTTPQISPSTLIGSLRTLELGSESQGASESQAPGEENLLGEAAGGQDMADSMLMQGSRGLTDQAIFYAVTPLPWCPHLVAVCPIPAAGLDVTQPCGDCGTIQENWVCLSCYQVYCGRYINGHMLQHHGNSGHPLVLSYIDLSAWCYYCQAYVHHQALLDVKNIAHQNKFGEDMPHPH
The assay is described as follows: HDAC6 enzyme inhibitory assay (HDAC-Glo I/II Assay kit). Conditions: 1 μM test compound; read-out: HDAC6 inhibitory rate (%) (1 μM). The class given is biochemical. In outline: as §1

T1 sequence (Q13547 whole entry): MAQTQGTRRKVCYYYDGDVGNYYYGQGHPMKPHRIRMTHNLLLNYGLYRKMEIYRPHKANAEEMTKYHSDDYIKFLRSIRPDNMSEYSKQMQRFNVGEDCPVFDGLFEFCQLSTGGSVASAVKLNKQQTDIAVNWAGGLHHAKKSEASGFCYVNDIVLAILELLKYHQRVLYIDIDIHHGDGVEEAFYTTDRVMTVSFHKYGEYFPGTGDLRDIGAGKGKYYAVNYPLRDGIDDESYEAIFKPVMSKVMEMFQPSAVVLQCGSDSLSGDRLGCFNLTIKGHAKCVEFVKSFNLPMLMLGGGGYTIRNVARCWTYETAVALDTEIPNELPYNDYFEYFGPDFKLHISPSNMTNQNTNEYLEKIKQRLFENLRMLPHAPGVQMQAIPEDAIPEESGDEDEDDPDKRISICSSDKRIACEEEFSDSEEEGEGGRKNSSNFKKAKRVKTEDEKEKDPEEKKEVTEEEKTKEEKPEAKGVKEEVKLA

As for `O=C(NC[C@H]1COCCN1C(=O)C1CCc2ccccc2O1)c1ccc(-c2noc(C(F)(F)F)n2)cc1` (stereo partly drawn) [Example 52, N-(((3S)-4-(3,4-dihydro-2H-chromen-2-ylcarbonyl)morpholin-3-yl)methyl)-4-(5-(trifluoromethyl)-1,2,4-oxadiazol-3-yl)benzamide], the inhibition at 1 µM amounted to 18% at HDAC1 enzyme and 97% at HDAC6 enzyme.

Turning to `N#CC1(C(=O)N2CCOC[C@@H]2CNC(=O)c2ccc(-c3noc(C(F)(F)F)n3)cc2)CC1` [Example 55, N-(((3S)-4-((1-cyanocyclopropyl)carbonyl)morpholin-3-yl)methyl)-4-(5-(trifluoromethyl)-1,2,4-oxadiazol-3-yl)benzamide], the inhibition at 1 µM was 17% on HDAC1 enzyme and 96% at HDAC6 enzyme.

For `O=C(NC[C@H]1COCCN1C(=O)C1(c2ccccc2)CC1)c1ccc(-c2noc(C(F)(F)F)n2)cc1` [Example 56, N-(((3S)-4-((1-phenylcyclopropyl)carbonyl)morpholin-3-yl)methyl)-4-(5-(trifluoromethyl)-1,2,4-oxadiazol-3-yl)benzamide], the inhibition at 1 µM on HDAC1 enzyme came out at 16%; at HDAC6 enzyme it was 97%.

As for `Cc1oncc1C(=O)N1CCOC[C@@H]1CNC(=O)c1ccc(-c2noc(C(F)(F)F)n2)cc1` [Example 59, N-(((3S)-4-((5-methyl-1,2-oxazol-4-yl)carbonyl)morpholin-3-yl)methyl)-4-(5-(trifluoromethyl)-1,2,4-oxadiazol-3-yl)benzamide], the inhibition at 1 µM was 22% at HDAC1 enzyme and 101% on HDAC6 enzyme.

`Cc1nonc1C(=O)N1CCOC[C@@H]1CNC(=O)c1ccc(-c2noc(C(F)(F)F)n2)cc1` [Example 60, N-(((3S)-4-((4-methyl-1,2,5-oxadiazol-3-yl)carbonyl)morpholin-3-yl)methyl)-4-(5-(trifluoromethyl)-1,2,4-oxadiazol-3-yl)benzamide]: the figures for the inhibition at 1 µM at HDAC1 enzyme and at HDAC6 enzyme were 27% and 98%, respectively.

As for `O=C(NC[C@H]1COCCN1C(=O)c1ccno1)c1ccc(-c2noc(C(F)(F)F)n2)cc1` [Example 61, N-(((3S)-4-(1,2-oxazol-5-ylcarbonyl)morpholin-3-yl)methyl)-4-(5-(trrfluoromethyl)-1,2,4-oxadiazol-3-yl)benzamide], the figures for the inhibition at 1 µM at HDAC1 enzyme and at HDAC6 enzyme were 10% and 97%, respectively.

Turning to `Cc1cc(C(=O)N2CCOC[C@@H]2CNC(=O)c2ccc(-c3noc(C(F)(F)F)n3)cc2)n(C)n1` [Example 63, N-(((3S)-4-((1,3-dimethyl-1H-pyrazol-5-yl)carbonyl)morpholin-3-yl)methyl)-4-(5-(trifluoromethyl)-1,2,4-oxadiazol-3-yl)benzamide], the inhibition at 1 µM on HDAC1 enzyme worked out at 14%; at HDAC6 enzyme it was 97%.

As for `Cn1nc(C(F)(F)F)cc1C(=O)N1CCOC[C@@H]1CNC(=O)c1ccc(-c2noc(C(F)(F)F)n2)cc1` [Example 64, N-(((3S)-4-((1-methyl-3-(trifluoromethyl)-1H-pyrazol-5-yl)carbonyl)morpholin-3-yl)methyl)-4-(5-(trifluoromethyl)-1,2,4-oxadiazol-3-yl)benzamide], the inhibition at 1 µM on HDAC1 enzyme worked out at 17%; at HDAC6 enzyme, 93%.

Take `Cc1nn(C)c(C)c1C(=O)N1CCOC[C@@H]1CNC(=O)c1ccc(-c2noc(C(F)(F)F)n2)cc1` [Example 67, 4-(5-(trifluoromethyl)-1,2,4-oxadiazol-3-yl)-N-(((3S)-4-((1,3,5-trimethyl-1H-pyrazol-4-yl)carbonyl)morpholin-3-yl)methyl)benzamide]: the inhibition at 1 µM is 5% at HDAC1 enzyme and 95% on HDAC6 enzyme.

With `Cc1nnsc1C(=O)N1CCOC[C@@H]1CNC(=O)c1ccc(-c2noc(C(F)(F)F)n2)cc1` [Example 68, N-(((3S)-4-((4-methyl-1,2,3-thiadiazol-5-yl)carbonyl)morpholin-3-yl)methyl)-4-(5-(trifluoromethyl)-1,2,4-oxadiazol-3-yl)benzamide], the inhibition at 1 µM at HDAC1 enzyme is 32%; on HDAC6 enzyme it was 101%.

On to `Cc1ncsc1C(=O)N1CCOC[C@@H]1CNC(=O)c1ccc(-c2noc(C(F)(F)F)n2)cc1` [Example 69, N-(((3S)-4-((4-methyl-1,3-thiazol-5-yl)carbonyl)morpholin-3-yl)methyl)-4-(5-(trifluoromethyl)-1,2,4-oxadiazol-3-yl)benzamide], for which the values for the inhibition at 1 µM on HDAC1 enzyme and on HDAC6 enzyme were 16% and 100%, respectively.

For `O=C(NC[C@H]1COCCN1C(=O)c1csnn1)c1ccc(-c2noc(C(F)(F)F)n2)cc1` [Example 70, N-(((3S)-4-(1,2,3-thiadiazol-4-ylcarbonyl)morpholin-3-yl)methyl)-4-(5-(trifluoromethyl)-1,2,4-oxadiazol-3-yl)benzamide], the inhibition at 1 µM at HDAC1 enzyme stood at 5%; on HDAC6 enzyme, 95%.

As to `Cc1ccsc1C(=O)N1CCOC[C@@H]1CNC(=O)c1ccc(-c2noc(C(F)(F)F)n2)cc1` [Example 74, N-(((3S)-4-((3-methyl-2-thienyl)carbonyl)morpholin-3-yl)methyl)-4-(5-(trifluoromethyl)-1,2,4-oxadiazol-3-yl)benzamide], the inhibition at 1 µM on HDAC1 enzyme is 18%; at HDAC6 enzyme it was 100%.

As for `O=C(NC[C@H]1COCCN1C(=O)C1CCCC1)c1ccc(-c2noc(C(F)(F)F)n2)cc1` [Example 77, N-(((3S)-4-(cyclopentylcarbonyl)morpholin-3-yl)methyl)-4-(5-(trifluoromethyl)-1,2,4-oxadiazol-3-yl)benzamide], the inhibition at 1 µM amounted to 18% on HDAC1 enzyme and 98% on HDAC6 enzyme.

As for `O=C(NC[C@H]1COCCN1C(=O)C1CCCCC1)c1ccc(-c2noc(C(F)(F)F)n2)cc1` [Example 80, N-(((3S)-4-(cyclohexylcarbonyl)morpholin-3-yl)methyl)-4-(5-(trifluoromethyl)-1,2,4-oxadiazol-3-yl)benzamide], the values for the inhibition at 1 µM at HDAC1 enzyme and on HDAC6 enzyme were 15% and 98%, respectively.

Turning to `Cn1nc2ccccc2c1C(=O)N1CCOC[C@@H]1CNC(=O)c1ccc(-c2noc(C(F)(F)F)n2)cc1` [Example 82, N-(((3S)-4-((2-methyl-2H-indazol-3-yl)carbonyl)morpholin-3-yl)methyl)-4-(5-(trifluoromethyl)-1,2,4-oxadiazol-3-yl)benzamide], the inhibition at 1 µM turned out to be 60% at HDAC1 enzyme and 101% on HDAC6 enzyme.

`O=C(NC[C@H]1COCCN1C(=O)Cn1cnccc1=O)c1ccc(-c2noc(C(F)(F)F)n2)cc1` [Example 83, N-(((3S)-4-((6-oxopyrimidin-1(6H)-yl)acetyl)morpholin-3-yl)methyl)-4-(5-(trifluoromethyl)-1,2,4-oxadiazol-3-yl)benzamide]: the inhibition at 1 µM on HDAC1 enzyme is 4%; on HDAC6 enzyme it was 15%.

With `CC(C)n1nccc1C(=O)N1CCOC[C@@H]1CNC(=O)c1ccc(-c2noc(C(F)(F)F)n2)cc1` [Example 84, N-(((3S)-4-((1-isopropyl-1H-pyrazol-5-yl)carbonyl)morpholin-3-yl)methyl)-4-(5-(trifluoromethyl)-1,2,4-oxadiazol-3-yl)benzamide], the inhibition at 1 µM amounted to 53% at HDAC1 enzyme and 98% at HDAC6 enzyme.

In the case of `Cn1cc2c(C(=O)N3CCOC[C@@H]3CNC(=O)c3ccc(-c4noc(C(F)(F)F)n4)cc3)cccc2n1` [Example 85, N-(((3S)-4-((2-methyl-2H-indazol-4-yl)carbonyl)morpholin-3-yl)methyl)-4-(5-(trifluoromethyl)-1,2,4-oxadiazol-3-yl)benzamide], the inhibition at 1 µM amounted to 15% on HDAC1 enzyme and 96% on HDAC6 enzyme.

With `N#Cc1cc(Cl)cc(C(=O)N2CCOC[C@@H]2CNC(=O)c2ccc(-c3noc(C(F)(F)F)n3)cc2)c1` [Example 86, N-(((3S)-4-(3-chloro-5-cyanobenzoyl)morpholin-3-yl)methyl)-4-(5-(trifluoromethyl)-1,2,4-oxadiazol-3-yl)benzamide], the values for the inhibition at 1 µM on HDAC1 enzyme and at HDAC6 enzyme were 24% and 98%, respectively.
